# Values quoted from earlier work, collected in patent EP2136625B1, “USE OF A MEANS FOR THE SI[…] WEEDS, ALGAE, PHYTOPATHOGENIC BACTERIA, FUNGI, VIRUSES AND VIROIDS” (priority 2007, dated 2008).
# Details: Methode EPA-FIFRA, Sonnenbarsch, 46 d
smiles,measurement,value
"CCCCCCCCCC[N+](C)(C)CCCCCCCCCC.[Cl-] [DDAC, Didecyldimethylammoniumchlorid]",BCF,81
